In patent US5376679A, “Bicyclic or tricyclic biocidal compounds” (Shell Internationale Research Maatschappij B.V., priority 1988, dated 1994):
Converted amounts (≈) assume the structure as drawn.

Tests used:
[1] = test system: Pseudocercosporella herpotrichoides; assay: In vitro activity against wheat eyespot (Ph); format: cell-based; design: Ph: activity against wheat eyespot: scale not given here; details: in vitro, 100 ppm in agar, 11 days; activity grade 1 or 2, not defined
Procedure: (c) Activity Against Wheat Eyespot (Pseudocercosporella herpotrichoides; Ph)
The test is an in vitro one. Samples are prepared wherein 0.7 mls solution containing 2 mg active material dissolved in acetone is evenly dispersed in 20 ml molten half-strength potato dextrose agar (formed by dissolving 2 g potato extract, 10 g dextrose and 7.5 g agar in 1 liter of water and sterilising for 15 minutes and 121° C.) and the resulting 20 ml portions are allowed to set in 9 cm petri dishes. The concentration of active material in the resulting samples is 100 ppm. Upon setting, two plugs of 5 mm diameter taken from the advancing edge of a stock plate of a 3 to 4 week old culture of P.herpotrichoides on full strength potato dextrose agar, incubated at 20°-22° C. in darkness, are placed, equally spaced on the surface of each sample, mycelial side uppermost. The samples are incubated for 11 days at 20°-22° C. in darkness before assessment. Diametric growth is measured with the width of the plug subtracted and results compared with growth on a sample wherein 0.7 ml acetone containing no active material is dispersed in 20 ml half-strength potato agar.

[2] = test system: Fusarium culmorum; assay: Activity against seedling wheat blight, soil drench (Fs); format: in vivo; design: scale not given here; details: 10 kg/ha, 21 days, activity grade 1 or 2, not defined
Procedure: (d) Activity Against Seedling Wheat Blight (Fusarium culmorum; Fs)
The test is an anti-sporulant one using a soil drench. Surface sterilised wheat seeds (var Waggoner) are inoculated by soaking in an aqueous suspension containing 7×10^5 spores/ml (60 mg seed per 80 ml suspension) at 22° C. for 6 hours. The seeds are then sown in pots (5 per pot) in sand at a depth of 1 cm. 1 day after inoculation and planting the active material is applied at a rate of 10 kg/ha by pouring on a soil drench (concentration 0.36 g/l active material in 12% v/v acetone/water) evenly over the sand. The pots are then transferred to a glasshouse, kept at 25° C. and watered sparingly. 21 days after inoculation the resulting seedlings are removed from the pots and their roots are gently washed. Visual assessment is made based on lesion development on stem base and upper roots in comparison with control seedlings.

[3] = test system: Leptosphaeria nodorum; assay: Direct antisporulant activity against wheat leafspot (Ln); format: in vivo; design: scale not given here; details: foliar spray, 1 kg/ha; activity grade 1 or 2, not defined
Procedure: (e) Activity Against Wheat Leafspot (Leptosphaeria nodorum; Ln) The test is a direct antisporulant one, using a foliar spray. Leaves of wheat plants ([…]), at the single leaf stage, are inoculated by spraying with an aqueous suspension containing 8×10^5 spores/mi. The inoculated plants are kept for 24 hours in a high humidity compartment prior to treatment. […] After drying, the plants are kept for 5 days under normal glasshouse conditions, followed by assessment. Assessment is based on the percentage of leaf area covered by sporulation compared with that on leaves of control plants.

[4] = test system: Erysiphe graminis f.sp. hordei; assay: Direct antisporulant activity against barley powdery mildew (Eg); format: in vivo; design: scale not given here; details: foliar spray, 1 kg/ha; activity grade 1 or 2, not defined
From the text: (f) Activity Against Barley Powdery Mildew (Erysiphe graminis f.sp. hordei; Eg) The test is a direct antisporulant one, using a foliar spray. Leaves of barley seedlings, cultivar Golden Promise, are inoculated by dusting with mildew conidia one day prior to treatment with the test compound. The inoculated plants are kept overnight at glasshouse ambient temperature and humidity prior to treatment. […] After drying, plants are returned to a compartment at ambient temperature and humidity for up to 7 days, followed by assessment. Assessment is based on the percentage of leaf area covered by sporulation compared with that on leaves of control plants.

[5] = test system: Staphylococcus aureus; assay: Minimum inhibitory concentration, Staphylococcus aureus (Sa); format: cell-based, Staphylococcus aureus (NCIB 6571); details: 30° C., 24 and 72 hours
Procedure: (§1) In respect of S. aureus, B. subtilis and E. coli, the microorganisms were cultured in 50 ml aliquots of a tryptone soya broth in 250 ml conical flasks at 30° C. on a rotary shaker at 200 rpm for 24 hours. Tryptone soya broth was prepared by adding 17 g pancreatic digest of casein, 3 g […] digest of soyabean meal, 5 g of sodium chloride, 2.5 g of dipotassium hydrogen phosphate and 2.5 g of dextrose to 1 liter of distilled water, mixing and sterilising by autoclaving at 121° C. for 15 minutes. 1 ml aliquots of the resulting cultures were mixed with 99 ml of fresh tryptone soya broth and used as inocula for tests. […] Test procedures were as follows: (ii) Dilution Series for Other Test Bacteria, Yeast and Filamentous Fungi Dilution series from the stock solution of each compound were prepared in sterile distilled water. These contained 50, 100, 500 and 1000 ppm compound. To duplicate wells of a compartmentalised square petri dish 0.3 ml of each test compound concentration was added together with 2.7 ml of one of the microbial inocula described above. […] After incubation, in the dark, at 30° C. the wells were examined for the presence or absence of growth. Bacterial and yeast cultures were examined after 24 hours and 72 hours incubation and the fungi cultures after 3, 7 and 10 days. By means of the above tests minimum inhibitory concentrations were determined for the various test compounds.

[6] = test system: Bacillus subtilis; assay: Minimum inhibitory concentration, Bacillus subtilis (Bs); format: cell-based; details: 30° C., 24 and 72 hours
Procedure: as §1

[7] = test system: Escherichia coli; assay: Minimum inhibitory concentration, Escherichia coli (Ec); format: cell-based, Escherichia coli (NCIB 9517); details: 30° C., 24 and 72 hours
Procedure: as §1

[8] = test system: Desulfovibrio sp.; assay: Minimum inhibitory concentration, sulphate-reducing bacteria (Dsp); format: cell-based; details: 30° C., 2, 5 and 10 days
Procedure: The sulphate reducing bacteria Desulfovibrio sp. were cultured in a modified Postgate's Medium B for 48 hours at 30° C. and used directly as an inoculum. The modified Postgate's Medium B consisted of 0.5 g dipotassium hydrogen phosphate, 1 g ammonium chloride, 1 g sodium sulphate, 5 g sodium lactate, 1 g yeast extract, 0.1 ml thioglycolic acid, 0.1 ml ascorbic acid, 0.5 g ferrous sulphate heptahydrate, 750 ml aged seawater and 250 ml distilled water, pH adjusted to 7.8, divided into aliquots and sterilised by autoclaving at 121° C. for 15 minutes. […] Test procedures were as follows: (i) Suphate-reducing Bacteria Test Dilution Series Duplicate aliquots (9.9 ml) of dilution series from the stock solutions of each compound were prepared in a modified Postgate's Medium B described above. These contained 100 ppm compound. These were then inoculated with 0.1 ml of inoculum. After incubation at 30° C., the presence or absence of growth--as indicated by a blackening of the medium due to ferrous sulphide production--was recorded at 2, 5 and 10 days. […] By means of the above tests minimum inhibitory concentrations were determined for the various test compounds.

[9] = test system: Saccharomyces cerevisiae; assay: Minimum inhibitory concentration, yeast (Sc); format: cell-based, Saccharomyces cerevisiae (ATCC 9763); details: 30° C., 24 and 72 hours
Procedure: Inocula of S. cerevisiae were prepared as for S. aureus, B. subtilis and E. coli, but using yeast malt broth in place of the typtone soya broth. The yeast malt broth was prepared by suspending 3 g yeast extract, 3 g malt extract, 5 g peptone and 10 g dextrose in 1 liter of distilled water, warming to achieve solution and sterilising by autoclaving at 121° C. for 15 minutes.
(§2) Test procedures were as follows:
(§3) (ii) Dilution Series for Other Test Bacteria, Yeast and Filamentous Fungi
(§4) Dilution series from the stock solution of each compound were prepared in sterile distilled water. These contained 50, 100, 500 and 1000 ppm compound. To duplicate wells of a compartmentalised square petri dish 0.3 ml of each test compound concentration was added together with 2.7 ml of one of the microbial inocula described above. This gave final concentrations of the test compound of 5, 10, 50 and 100 ppm.
(§5) After incubation, in the dark, at 30° C. the wells were examined for the presence or absence of growth. Bacterial and yeast cultures were examined after 24 hours and 72 hours incubation and the fungi cultures after 3, 7 and 10 days.
(§6) By means of the above tests minimum inhibitory concentrations were determined for the various test compounds.

[10] = test system: Aspergillus niger; assay: Minimum inhibitory concentration, Aspergillus niger (An); format: cell-based, Aspergillus niger (CMI 17454); details: 30° C., 3, 7 and 10 days
Procedure: (§7) Inocula of the fungi Aspergillus niger, Cladosporium resinae and Chaetomium globosum were prepared containing 5×10^5 conidia/ml in a potato dextrose broth. The potato dextrose broth was prepared by suspending 4 g potato extract and 20 g dextrose in 1 liter of distilled water, warming to achieve solution, separating into aliquots and sterilising by autoclaving at 121° C. for 15 minutes.
as §2, §3, §4, §5, §6

[11] = test system: Cladosporium resinae; assay: Minimum inhibitory concentration, Cladosporium resinae (Cr); format: cell-based; details: Amorphotheca resinae, 30° C., 3, 7 and 10 days
Procedure: as §7, §2, §3, §4, §5, §6

[12] = test system: Chaetomium globosum; assay: Minimum inhibitory concentration, Chaetomium globosum (Chg); format: cell-based
Procedure: as §7, §2, §3, §4, §5, §6

Compound | MIC ([12]; 30° C., 3, 7 and 10 days) [µg/mL] | Ph: activity against wheat eyespot [1] | Fs: activity against seedling wheat blight [2] | Ln: activity against wheat leafspot [3] | Eg: activity against barley powdery mildew [4] | MIC [5] [µg/mL] | MIC [6] [µg/mL] | MIC [7] [µg/mL] | MIC [8] [µg/mL] | MIC [9] [µg/mL] | MIC [10] [µg/mL] | MIC [11] [µg/mL] | MIC ([12]; *only tested at 100 ppm) [µg/mL]
CCC1Cc2cccc([N+]([O-])=NC#N)c2O1 (stereo not drawn) [Example 8] |  | 2 | 2 | 1 | 1 | > 100 | > 100 | > 100 | > 100 | 100 (≈ 460 µM) | 10 (≈ 46 µM) | 10 (≈ 46 µM) | < 100
N#CN=[N+]([O-])c1cccc2c1OC(CO)C2 (stereo not drawn) [Example 12] | 100 (≈ 456 µM) |  |  |  |  | > 100 | 50 (≈ 228 µM) | 100 (≈ 456 µM) | 50 (≈ 228 µM) | > 100 | > 100 | 100 (≈ 456 µM) | 
CC1(C)CCc2cc(Cl)cc([N+]([O-])=NC#N)c2O1 [Example 15] | > 100 | 2 | 2 |  |  | > 100 | 100 (≈ 376 µM) | > 100 | > 100 | 50 (≈ 188 µM) | 10 (≈ 37.6 µM) | > 100 | 
CC1(C)C=Cc2cccc([N+]([O-])=NC#N)c2O1 [Example 27] |  | 2 | 2 |  |  | > 100 | > 100 | > 100 | 100 (≈ 436 µM) | > 100 | 100 (≈ 436 µM) | 25 (≈ 109 µM) | < 100

Second part, led by results:

MIC ([12]; 30° C., 3, 7 and 10 days) [µg/mL] | Compound | Ph: activity against wheat eyespot [1] | Fs: activity against seedling wheat blight [2] | Ln: activity against wheat leafspot [3] | Eg: activity against barley powdery mildew [4] | MIC [5] [µg/mL] | MIC [6] [µg/mL] | MIC [7] [µg/mL] | MIC [8] [µg/mL] | MIC [9] [µg/mL] | MIC [10] [µg/mL] | MIC [11] [µg/mL] | MIC ([12]; *only tested at 100 ppm) [µg/mL]
25 (≈ 105 µM) | N#CN=[N+]([O-])c1cccc2c1OC(CCl)C2 (stereo not drawn) [Example 13] |  |  |  |  | 100 (≈ 421 µM) | 100 (≈ 421 µM) | 100 (≈ 421 µM) | > 100 | 100 (≈ 421 µM) | 10 (≈ 42.1 µM) | 100 (≈ 421 µM) | 
< 5 | CC1CCc2cccc([N+]([O-])=NC#N)c2O1 (stereo not drawn) [Example 14] | 2 |  |  |  | > 100 | > 100 | > 100 | 100 (≈ 460 µM) | 50 (≈ 230 µM) | 10 (≈ 46 µM) | 25 (≈ 115 µM) | 
